The results in this text go back to patent publication US10344000B2, “Substituted bicyclic pyrazole compounds as RORgammaT inhibitors and uses thereof” (Merck Sharp & Dohme Corp., priority 2015, dated 2019).

Structures are written as SMILES.

The first test deals with human RORgammaT-Ligand Binding Domain (LBD) (Homo sapiens (Human), UniProt P51449). The experiment in a line: RORγ-Ligand Binding Domain TR-FRET Assay (SRC1_2 co-activator peptide). It is filed as biochemical. The settings on record: Fret IC50 (nM), HIS-tagged RORγ-LBD 3 nM, biotinylated SRC1 LXXLL peptide 100 nM, incubated overnight at 4° C.
Sequence of human RORgammaT-Ligand Binding Domain (LBD) (P51449 269-508): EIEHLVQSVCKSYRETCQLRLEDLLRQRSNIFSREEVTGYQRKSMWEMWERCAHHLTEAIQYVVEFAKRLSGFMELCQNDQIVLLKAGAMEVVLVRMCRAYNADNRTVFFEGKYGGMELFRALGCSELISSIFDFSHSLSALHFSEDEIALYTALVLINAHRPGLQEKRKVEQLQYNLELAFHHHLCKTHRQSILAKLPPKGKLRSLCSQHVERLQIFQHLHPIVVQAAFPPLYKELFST
Consider `N#CC1(c2cccc(Cl)c2C(=O)n2nc(C3=CCC(C(=O)O)CC3)c3c2COCC3)CCC1` (single isomer, unassigned) [Example 2C-A, (1R or S)-4-(1-{[2-chloro-6-(1-cyanocyclobutyl)phenyl]carbonyl}-1,4,5,7-tetrahydropyrano[3,4-c]pyrazol-3-yl)cyclohex-3-ene-1-carboxylic acid], for which the IC50 is 676 nM.
`N#CC1(c2cccc(Cl)c2C(=O)n2nc(C3=CCC(C(=O)O)CC3)c3c2COCC3)CCC1` (single isomer, unassigned) [Example 2C-B, (1R or S)-4-(1-{[2-chloro-6-(1-cyanocyclobutyl)phenyl]carbonyl}-1,4,5,7-tetrahydropyrano[3,4-c]pyrazol-3-yl)cyclohex-3-ene-1-carboxylic acid]: the half-inhibitory concentration (IC50) was 1050 nM.

The same test, now with this note: HIS-tagged RORγ-LBD 3 nM, biotinylated SRC1 LXXLL peptide 100 nM, incubated overnight at 4° C.; read-out: Fret IC50.
In the case of `O=C(O)C1CC=C(c2nn(C(=O)c3c(Cl)cccc3C3CC3)c3c2CCC(CO)C3)CC1` (single isomer, unassigned) [Example 6A, 4-((R or S)-1-(2-chloro-6-cyclopropylbenzoyl)-6-(hydroxymethyl)-4,5,6,7-tetrahydro-1H-indazol-3-yl)cyclohex-3-ene-1-carboxylic Acid], the half-inhibitory concentration (IC50) worked out at 173 nM.
In the case of `O=C(O)C1CC=C(c2nn(C(=O)c3c(Cl)cccc3C3CC3)c3c2CCC(CO)C3)CC1` (single isomer, unassigned) [Example 7A, 4-((R or S)-1-(2-chloro-6-cyclopropylbenzoyl)-6-(hydroxymethyl)-4,5,6,7-tetrahydro-1H-indazol-3-yl)cyclohex-3-ene-1-carboxylic Acid], the half-inhibitory concentration (IC50) is 9 nM.
Take `O=C(O)C1CC=C(c2nn(C(=O)c3c(C4CC4)ccc(F)c3Cl)c3c2CCC(CO)C3)CC1` (single isomer, unassigned) [Example 7B, 4-((R or S)-1-(2-chloro-6-cyclopropyl-3-fluorobenzoyl)-6-(hydroxymethyl)-4,5,6,7-tetrahydro-1H-indazol-3-yl)cyclohex-3-ene-1-carboxylic acid]: the half-inhibitory concentration (IC50) came out at 14 nM.
On to `O=C(O)C1CC=C(c2nn(C(=O)c3c(Cl)cccc3C3COC3)c3c2CCC(CO)C3)CC1` (single isomer, unassigned) [Example 7C, 4-((R or S)-1-(2-chloro-6-(oxetan-3-yl)benzoyl)-6-(hydroxymethyl)-4,5,6,7-tetrahydro-1H-indazol-3-yl)cyclohex-3-ene-1-carboxylic acid], for which the concentration for half-maximal inhibition (IC50) amounted to 15 nM.
For the compound `O=C(O)C1CC=C(c2nn(C(=O)c3c(Cl)cccc3C3(C(F)(F)F)CC3)c3c2CCC(CO)C3)CC1` (single isomer, unassigned) [Example 7D, 4-((R or S)-1-(2-chloro-6-(1-(trifluoromethyl)cyclopropyl)benzoyl)-6-(hydroxymethyl)-4,5,6,7-tetrahydro-1H-indazol-3-yl)cyclohex-3-ene-1-carboxylic acid], the IC50 stood at 5 nM.
On to `O=C(O)C1CC=C(c2nn(C(=O)c3c(Cl)cccc3C3CC3)c3c2CCC(O)C3)CC1` (single isomer, unassigned) [Example 10A, 4-((R or S)-1-(2-chloro-6-cyclopropylbenzoyl)-6-hydroxy-4,5,6,7-tetrahydro-1H-indazol-3-yl)cyclohex-3-ene-1-carboxylic Acid], for which the IC50 came to 57 nM.
Regarding `O=C(O)C1CC=C(c2nn(C(=O)c3c(Cl)cccc3C3CC3)c3c2CCC(O)C3)CC1` (single isomer, unassigned) [Example 10B, 4-((R or S)-1-(2-chloro-6-cyclopropylbenzoyl)-6-hydroxy-4,5,6,7-tetrahydro-1H-indazol-3-yl)cyclohex-3-ene-1-carboxylic Acid], the IC50 worked out at 32 nM.
Turning to `NCC1CCc2c(C3=CCC(C(=O)O)CC3)nn(C(=O)c3c(Cl)cccc3C3CC3)c2C1` (single isomer, unassigned) [Example 14A, 4-((R or S)-6-(aminomethyl)-1-(2-chloro-6-cyclopropylbenzoyl)-4,5,6,7-tetrahydro-1H-indazol-3-yl)cyclohex-3-ene-1-carboxylic Acid], the concentration for half-maximal inhibition (IC50) amounted to 1200 nM.
The same measure, in the same setting: as for `CC1(c2cccc(Cl)c2C(=O)n2nc(C3=CCC(C(=O)O)CC3)c3c2COCC3)CC1` (centres unmarked) [Example 1D, 4-(1-{[2-chloro-6-(1-methylcyclopropyl)phenyl]carbonyl}-1,4,5,7-tetrahydropyrano[3,4-c]pyrazol-3-yl)cyclohex-3-ene-1-carboxylic acid], the figure is 38 nM; as for `N#CC1(c2cccc(Cl)c2C(=O)n2nc(C3=CCC(C(=O)O)CC3)c3c2CCC3)CCC1` (centres unmarked) [Example 1F, 4-(1-{[2-chloro-6-(1-cyanocyclobutyl)phenyl]carbonyl}-1,4,5,6-tetrahydrocyclopenta[c]pyrazol-3-yl)cyclohex-3-ene-1-carboxylic acid], 1170 nM; as for `O=C(O)C1CC=C(c2nn(C(=O)c3c(Cl)cccc3C3CC3)c3c2OCCC3)CC1` (centres unmarked) [Example 15A, 4-(1-(2-chloro-6-cyclopropylbenzoyl)-1,5,6,7-tetrahydropyrano[3,2-c]pyrazol-3-yl)cyclohex-3-ene-1-carboxylic Acid], 56 nM.
As to `O=C(O)C1CCN(c2nn(C(=O)c3c(Cl)cccc3C3CC3)c3c2CCCC3)CC1` [Example 16A, 1-(1-(2-chloro-6-cyclopropylbenzoyl)-4,5,6,7-tetrahydro-1H-indazol-3-yl)piperidine-4-carboxylic Acid], the concentration for half-maximal inhibition (IC50) turned out to be 149 nM.

As usually defined, the IC50 is the concentration at which inhibition is half-maximal.
